We go through nine compounds from PubChem BioAssay (NCI).

Test systems include A549 NSCLC; COLO 205 colon; HT29 colon; HS 578T breast; A498 renal; HOP-62 NSCLC; SK-MEL-28 melanoma; K-562 leukemia; MCF7 breast; NCI/ADR-RES ovarian.
Experiment in all cases: DTP human tumour cell line panel, 48 h

Molecules are shown by their SMILES.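 1) Cells in 96-well plates. 2) Compound, 48 h, 5 concentrations. 3) Linear interpolation between surrounding doses. 4) Unreached endpoint = highest concentration. Abbreviation: GI50, concentration required for 50% inhibition of growth. The concentration for full growth arrest is given as TGI.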

Usually TGI stands for the concentration giving total growth inhibition. As for `COc1cccc(C2c3cc4c(cc3OC(N3CCCC3)C2C)OCO4)c1O` (stereo not given), the TGI was more than 67.1 µM in the assay on A549 NSCLC; 10.5 µM in the assay on COLO 205 colon; 14.7 µM in the assay with HT29 colon; 18.5 µM in the assay on HS 578T breast; 33.7 µM in the assay with A498 renal; 45.7 µM in the assay with HOP-62 NSCLC. Also, the TGI in the assay with SK-MEL-28 melanoma was 81.1 µM; in the assay on K-562 leukemia it was 57.8 µM; with MCF7 breast, more than 83.6 µM; in the assay on NCI/ADR-RES ovarian it was 47.1 µM.

Usually GI50 stands for the concentration that inhibits growth by half. With `COc1cc(Nc2nc3ccccc3cc2C(=O)Nc2ccc(F)c(F)c2)cc(OC)c1OC`, the GI50 in the assay with A549 NSCLC is 3.08 µM; with COLO 205 colon, 1.77 µM; in the assay with HT29 colon, 3.59 µM; in the assay on HS 578T breast it was 2.8 µM; with A498 renal, 2.39 µM; in the assay with HOP-62 NSCLC, 2.73 µM. Also, the GI50 in the assay on SK-MEL-28 melanoma is 3.54 µM; in the assay on K-562 leukemia it was 3.31 µM; in the assay on MCF7 breast, 2.16 µM; with NCI/ADR-RES ovarian it was 2.49 µM. Moreover, the TGI in the assay with A549 NSCLC was more than 100 µM; in the assay on COLO 205 colon, 3.78 µM; in the assay with HT29 colon, more than 100 µM; with HS 578T breast, 13.6 µM; with A498 renal it was 8.25 µM; in the assay on HOP-62 NSCLC, 12.2 µM. Moreover, the TGI was more than 100 µM with SK-MEL-28 melanoma, more than 100 µM in the assay with K-562 leukemia, 8.4 µM in the assay with MCF7 breast and 7.21 µM with NCI/ADR-RES ovarian.

For the compound `NC(=O)c1cccc(Nc2nccc(Nc3cccc4[nH]ncc34)n2)c1`, the GI50 in the assay on A549 NSCLC was more than 24 µM; in the assay on COLO 205 colon, 5.5 µM; with HT29 colon, 9.68 µM; with HS 578T breast, 0.557 µM; in the assay on A498 renal it was 5 µM; with HOP-62 NSCLC, 9.28 µM. Further, the GI50 was 10.1 µM in the assay on SK-MEL-28 melanoma, 4.53 µM with K-562 leukemia, 9.49 µM in the assay on MCF7 breast and more than 25 µM in the assay with NCI/ADR-RES ovarian. In addition, the TGI is more than 25 µM with A549 NSCLC; 17.1 µM in the assay with COLO 205 colon; more than 25 µM in the assay on HT29 colon; 3.21 µM with HS 578T breast; 22.7 µM in the assay on A498 renal; more than 25 µM in the assay with HOP-62 NSCLC. Also, the TGI in the assay with SK-MEL-28 melanoma, with K-562 leukemia, in the assay with MCF7 breast and in the assay on NCI/ADR-RES ovarian was more than 25 µM in each case.

Regarding `COc1cccc(NC(=O)c2sc3nc4c(cc3c2N)C(=O)CCC4)c1`, the GI50 in the assay with A549 NSCLC was 0.103 µM; with COLO 205 colon, 0.0834 µM; in the assay with HT29 colon it was 0.0866 µM; with HS 578T breast it was 0.0816 µM; with A498 renal it was 0.0521 µM; in the assay with HOP-62 NSCLC, 0.337 µM. Also, the GI50 was 0.81 µM in the assay on SK-MEL-28 melanoma, 0.0513 µM with K-562 leukemia, 0.0443 µM in the assay with MCF7 breast and 0.102 µM in the assay with NCI/ADR-RES ovarian. The TGI was more than 100 µM with A549 NSCLC; 2.15 µM in the assay with COLO 205 colon; more than 100 µM in the assay on HT29 colon; more than 100 µM in the assay on HS 578T breast; 0.83 µM in the assay on A498 renal; more than 100 µM in the assay on HOP-62 NSCLC. In addition, the TGI in the assay on SK-MEL-28 melanoma was more than 100 µM; in the assay on K-562 leukemia it was more than 100 µM; in the assay with MCF7 breast, more than 100 µM; in the assay on NCI/ADR-RES ovarian, more than 45.9 µM.

Take `CNC(=O)Cc1nc(-c2cccc(NS(=O)(=O)c3c(F)cccc3F)c2F)c(-c2ccnc(Nc3ccccc3)n2)s1`: the GI50 was 8.53 µM in the assay with A549 NSCLC; 0.0188 µM in the assay on COLO 205 colon; 0.0327 µM in the assay with HT29 colon; 0.482 µM in the assay on HS 578T breast; 2.6 µM in the assay on A498 renal; 3.27 µM in the assay on HOP-62 NSCLC. Moreover, the GI50 in the assay with SK-MEL-28 melanoma was 0.0185 µM; in the assay with K-562 leukemia, 1.09 µM; in the assay on MCF7 breast it was 19.1 µM; in the assay with NCI/ADR-RES ovarian it was more than 50 µM. Besides, the TGI in the assay with A549 NSCLC is more than 50 µM; with COLO 205 colon, more than 30.2 µM; with HT29 colon, more than 50 µM; in the assay on HS 578T breast, 43.7 µM; with A498 renal, 18.5 µM; with HOP-62 NSCLC it was more than 50 µM. In addition, the TGI in the assay with SK-MEL-28 melanoma, in the assay on K-562 leukemia, with MCF7 breast and with NCI/ADR-RES ovarian was more than 50 µM throughout.

On to `O=c1c(Cl)c(Cl)c(=O)c2sc3cc(Cl)ccc3[nH]c1=2`, for which the TGI in the assay with A549 NSCLC, in the assay on COLO 205 colon, with HT29 colon, in the assay on HS 578T breast, with A498 renal and with HOP-62 NSCLC was more than 100 µM in each case. The TGI in the assay with SK-MEL-28 melanoma was more than 100 µM; with K-562 leukemia it was 34.6 µM; with MCF7 breast, more than 100 µM; in the assay on NCI/ADR-RES ovarian it was 20.1 µM.

On to `Cc1ccc(C)c(C2NC(=O)c3ccccc3N2)c1` (stereo not given), for which the TGI with A549 NSCLC is more than 100 µM; with COLO 205 colon it was 7.06 µM; with HT29 colon, more than 54.2 µM; in the assay with HS 578T breast, 7.73 µM; in the assay with A498 renal it was 32 µM; with HOP-62 NSCLC, more than 87.6 µM. For the same compound, the TGI in the assay with SK-MEL-28 melanoma was more than 100 µM; with K-562 leukemia, more than 30.1 µM; with MCF7 breast, more than 84.5 µM; with NCI/ADR-RES ovarian, 8.37 µM.

For the compound `COc1cc(CNc2ccccc2C(=O)N2CCN(C(=O)c3cc(-c4cc(OC)c(OC)c(OC)c4)n4nc(-c5ccccc5)cc4n3)CC2)cc(OC)c1OC`, the GI50 is 3.55 µM with A549 NSCLC; 4.1 µM in the assay with COLO 205 colon; 3.5 µM in the assay with HT29 colon; 3.8 µM in the assay with HS 578T breast; 2.15 µM in the assay on A498 renal; 6.04 µM in the assay with HOP-62 NSCLC. The GI50 in the assay with SK-MEL-28 melanoma was 5.24 µM; with K-562 leukemia, 1.56 µM; with MCF7 breast it was 3.01 µM; in the assay on NCI/ADR-RES ovarian, 1.95 µM. The TGI in the assay with A549 NSCLC was more than 100 µM; in the assay on COLO 205 colon, 15.4 µM; with HT29 colon, 12 µM; in the assay on HS 578T breast, more than 100 µM; in the assay with A498 renal it was 20.8 µM; with HOP-62 NSCLC, more than 100 µM. Also, the concentration for total growth inhibition (TGI) with SK-MEL-28 melanoma is more than 100 µM; in the assay on K-562 leukemia it was more than 100 µM; with MCF7 breast it was more than 100 µM; with NCI/ADR-RES ovarian, 5.76 µM.

Regarding `Cc1cc(C)c(NC(=S)NC(=O)c2ccccc2)cc1C`, the TGI with A549 NSCLC, with COLO 205 colon, with HT29 colon, in the assay with HS 578T breast, in the assay with A498 renal and with HOP-62 NSCLC was more than 100 µM each time. Moreover, the TGI in the assay with SK-MEL-28 melanoma, in the assay with K-562 leukemia, in the assay with MCF7 breast and with NCI/ADR-RES ovarian was more than 100 µM each time.
